Where two headings read alike, the source gives them in different places.
What was measured:
α-synuclein aggregate [1] = target: T1, α-synuclein aggregate (Homo sapiens, UniProt P37840); experiment: Binding to α-synuclein aggregate versus tau aggregate (inventors' finding, no method given)
α-synuclein lesions [2] = target: T2, α-synuclein lesions (Mus musculus, UniProt O55042); experiment: Ex vivo imaging of α-synuclein fibril-injected model mouse brain; format: in vivo; conditions: 1.66 mg/kg; brains collected 90 minutes after C05-05 or 120 minutes after BF-227
T2 construct: from tissue; host or cells: brain of C57BL/6 mice inoculated in the striatum with recombinant murine α-synuclein fibrils (made in E. coli)
Description: A model mouse at 6 weeks after the injection of the α-synuclein fiber solution was anesthetized with 1.5% (v/v) isoflurane in a manner similar to that described in “(Preparation of α-synuclein fibril-injected mouse model)” above, and C05-05 (1.66 mg/kg) or BF-227 (1.66 mg/kg) was intraperitoneally administered.
The brains were collected and frozen 90 minutes after the administration of C05-05 (or 120 minutes after the administration of BF-227), and frozen sections with the thickness of 20 μm were prepared in a cryostat (HM560). After mounting the sections using a mounting medium (VECTASHIELD H-1000), images of α-synuclein aggregate-enriched areas on the sections were obtained using a fluorescence microscope (DM4000).
Moreover, the same sections were immersed and fixed overnight in a phosphate buffer solution containing 4% paraformaldehyde. The brain after fixation was washed under running water and then treated with an autoclave for the antigen retrieval. Immunohistochemical staining with an anti-phosphorylated α-synuclein monoclonal antibody (pS129, abcam, ab59264) (1:1000) was carried out, and after mounting the sections using a mounting medium (VECTASHIELD H-1000), images of the same areas were obtained using the fluorescence microscope (DM4000). FIG. 7(a) contains images showing the case where C05-05 was administered, and FIG. 7(b) is images showing the case where BF-227 was administered.

[3] = target: T3, α-synuclein aggregate formed in the brain of the DLB patient (Homo sapiens, UniProt P37840); experiment: In vitro fluorescence microscope measurement, DLB patient brain sections; format: binding; conditions: for binding to the α-synuclein aggregate formed in the brain of the DLB patient, reactivity relative to PBB3: 30 μM compound, 50% ethanol, 30 minutes, room temperature, amygdala sections
T3 construct: Postfixed fresh frozen sections of the amygdala tissue of the DLB patient; from tissue; host or cells: post-mortem human DLB amygdala, frozen sections
Source text: Postmortem human brains were obtained from autopsies carried out with respect to a dementia with Lewy bodies (DLB) and Alzheimer's disease (AD) patients.
A frozen DLB tissue was sliced with a thickness of 20 μm in a cryostat (HM560, Carl Zeiss).
Postfixed fresh frozen sections of the amygdala tissue of the DLB patient and formalin fixed, paraffin embedded sections of a deparaffinized middle frontal gyrus tissue of the AD patient were used. Thirty μM of each of the above compounds and brain sections were incubated in a 50% ethanol solution for 30 minutes at room temperature. The sections were then washed twice, i.e., washed with a 50% ethanol solution for 5 minutes and with ultrapure water for 3 minutes. After mounting the sections using a mounting medium (VECTASHIELD H-1000, Vector Laboratories), images of lesion-enriched areas on the sections were obtained using a fluorescence microscope (DM4000, Leica). Analysis software (Image J) was used to quantify the fluorescence of lesion-enriched and lesion-free (background) areas.

[4] = test system: aggregate of tau or amyloid-β formed in the brain of the AD patient; experiment: In vitro fluorescence microscope measurement, AD patient brain sections; format: binding, human; conditions: AD and DLB patient brain sections, 30 μM
Source text: Postmortem human brains were obtained from autopsies carried out with respect to a dementia with Lewy bodies (DLB) and Alzheimer's disease (AD) patients. Moreover, an AD brain tissue was fixed in 10% neutral buffered formalin, embedded in a paraffin block, and sliced with a thickness of 6 μm. Postfixed fresh frozen sections of the amygdala tissue of the DLB patient and formalin fixed, paraffin embedded sections of a deparaffinized middle frontal gyrus tissue of the AD patient were used. Thirty μM of each of the above compounds and brain sections were incubated in a 50% ethanol solution for 30 minutes at room temperature. The sections were then washed twice, i.e., washed with a 50% ethanol solution for 5 minutes and with ultrapure water for 3 minutes. After mounting the sections using a mounting medium ([sequence] H-1000, Vector Laboratories), images of lesion-enriched areas on the sections were obtained using a fluorescence microscope (DM4000, Leica). Analysis software (Image J) was used to quantify the fluorescence of lesion-enriched and lesion-free (background) areas.

α-synuclein lesions [5] = target: T2, α-synuclein lesions; experiment: In vivo two-photon laser scanning fluorescence microscopy of α-synuclein fibril-injected model mouse; conditions: tail vein, 50 μl of 0.05% solution; 90 minutes after C05-05 or 30 minutes after PBB3
Description: Note that the α-synuclein aggregate was inoculated into the striatum of the mouse with the following manner. First, hair on the head of 9-week-old C57BL/6 male mouse anesthetized with 1.5% (v/v) isoflurane was removed, and the scalp was disinfected with isodine, followed by application of xylocaine and incision in the scalp to expose the skull. Then, a hole was drilled in the skull at a position of 0.05 mm posterior to the bregma and 2 mm lateral to the midline, and 3 μl of an α-synuclein fiber solution (murine α-synuclein fiber (4 mg/ml) in saline) was injected into a position […] ventral to the brain surface using a glass pipette, and then the scalp was returned and sutured.
A model mouse was anesthetized with 1.5% (v/v) isoflurane 6 weeks after the injection of the α-synuclein fiber solution, and a cranial window was provided according to the Seylaz-Tomita method (Tomita et al. J Cereb Blood Flow Metab 25, 858-67, 2005). The mouse was anesthetized with 1.5% (v/v) isoflurane 2 weeks after the generation of the cranial window, and 50 μl of a solution of DMSO/physiological saline water=1:1 containing 0.05% of C05-05 or PBB3 was administered via the tail vein. The mouse was fixed under a two-photon laser fluorescence microscope 90 minutes after administration of C05-05 or 30 minutes after administration of PBB3, and 100 μl of a saline solution containing 5 mM of Sulforhodamine 101 was administered intraperitoneally, followed by intravital two-photon fluorescence imaging at an excitation wavelength of 900 nm. The detection wavelengths for C05-05 and PBB3 were set at 500 nm to 550 nm, and detection wavelengths for Sulforhodamine 101 were set at 573 nm to 648 nm.

α-synuclein aggregate [6] = target: T1, α-synuclein aggregate; conditions: background art, cited from earlier work

Row | Compound | binding selectivity for the α-synuclein aggregate compared with a tau aggregate (α-synuclein aggregate [1]) | binding to the α-synuclein aggregate formed in the brain of the DLB patient, reactivity relative to PBB3 [3] | other results
1 | CNc1ccc(/C=C/C=C/c2nc3ccc(OCC(O)C[18F])cc3s2)cn1 (centres unmarked) [1-(18)F-fluoro-3-(2-((1E,3E)-4-(6-(methylamino)pyridin-3-yl)buta-1,3-dienyl)benzo[d]thiazol-6-yloxy)propan-2-ol] | higher binding selectivity for an aggregate of tau proteins than to an α-synuclein aggregate | – | –
2 | CNc1ccc(/C=C/C=C/c2nc3ccc(OCC(O)CF)cc3s2)cn1 (centres unmarked) [1-fluoro-3-(2-((1E,3E)-4-(6-(methylamino)pyridin-3-yl)buta-1,3-dienyl)benzo[d]thiazol-6-yloxy)propan-2-ol] | higher binding selectivity for an aggregate of tau proteins than to an α-synuclein aggregate | – | –
3 | [11CH3]Nc1ccc(/C=C/C=C/c2nc3ccc(O)cc3s2)cn1 [2-((1E,3E)-4-(6-((11)C-methylamino)pyridin-3-yl)buta-1,3-dienyl)benzo[d]thiazol-6-ol] | higher binding selectivity for an aggregate of tau proteins than to an α-synuclein aggregate | – | –
4 | CN(C)c1ncc(/C=C/c2nc3ccc(OCCF)cc3o2)s1 [BF-227, 2-(2-[2-dimethylaminothiazol-5-yl]ethenyl)-6-5 (2-[fluoro]ethoxy)benzoxazole, reference compound] | – | – | detection of α-synuclein lesions by ex vivo imaging (α-synuclein lesions [2]): no lesion was detected; binding to the α-synuclein aggregate relative to the compounds represented by the formula (I) ([3]; 30 μM, DLB patient brain sections): weaker than the compounds represented by the formula (I); aggregate mainly bound [4]: mainly bound to the amyloid-β aggregate of AD
5 | CNc1ccc(C#C/C=C/c2nc3ccc(O)cc3s2)c(F)n1 [C05-01, (E)-2-(4-(2-fluoro-6-(methylamino)pyridin-3-yl)but-1-en-3-ynyl)benzo[d]thiazol-6-ol] | – | reactivity equal to or greater than that of PBB3 | –
6 | CNc1ccc(C#C/C=C/c2nc3ccc(CN)cc3s2)cn1 [C05-02, (E)-5-(4-(6-(aminomethyl)benzo[d]thiazol-2-yl)but-3-en-1-ynyl)-N-methylpyridine-2-amine] | – | reactivity equal to or greater than that of PBB3 | –
7 | CNc1ccc(C#C/C=C/c2nc3ccc(O)cc3s2)cn1 [C05-03, (E)-2-(4-(6-(methylamino)pyridin-3-yl)but-1-en-3-ynyl)benzo[d]thiazol-6-ol] | – | reactivity equal to or greater than that of PBB3 | –
8 | CNc1ccc(C#C/C=C/c2nc3ccc(OC)cc3s2)c(F)n1 [C05-04] | – | reactivity equal to or greater than that of PBB3 | –
9 | CN(C)c1ccc(C#C/C=C/c2nc3ccc(O)cc3s2)cc1 [C05-08, (E)-2-(4-(4-(dimethylamino)phenyl)but-1-en-3-ynyl)benzo[d]thiazol-6-ol] | – | reactivity equal to or greater than that of PBB3 | –
10 | CNc1ccc(C#C/C=C/c2nc3ccc(O)cc3s2)cc1 [C05-09, (E)-2-(4-(4-(methylamino)phenyl)but-1-en-3-ynyl)benzo[d]thiazol-6-ol] | – | reactivity equal to or greater than that of PBB3 | –
11 | CNc1ccc(C#C/C=C/c2cc3cc(O)ccc3o2)c(F)n1 [C06-02] | – | reactivity equal to or greater than that of PBB3 | –
12 | CNc1ccc(/C=C/C=C/c2nc3ccc(O)cc3s2)cn1 [PBB3, 2-((1E,3E)-4-(6-(methylamino)pyridin-3-yl)buta-1,3-dienyl)benzo[d]thiazol-6-ol] | lower binding selectivity for the α-synuclein aggregate as compared with its binding selectivity for a tau aggregate | – | binding to the α-synuclein aggregate (α-synuclein aggregate [1]): some degree of affinity; binding selectivity for the α-synuclein aggregate compared with a tau aggregate (α-synuclein aggregate [1]; listed as 2-((1E,3E)-4-(6-(methylamino)pyridin-3-yl)buta-1,3-dienyl)benzo[d]thiazol-6-ol): higher binding selectivity for an aggregate of tau proteins than to an α-synuclein aggregate; detection of α-synuclein lesions by intravital two-photon fluorescence imaging (α-synuclein lesions [5]): no lesion was detected
13 | CN([11CH3])c1ncc(/C=C/c2nc3ccc(OCCF)cc3o2)s1 [[^11C]BF-227] | – | – | binding selectivity for the α-synuclein aggregate (α-synuclein aggregate [6]; binds to an amyloid-β aggregate): low; binding affinity for the α-synuclein aggregate (α-synuclein aggregate [6]): insufficient; detection of α-synuclein lesions in patients by PET (α-synuclein aggregate [6]): only in a subset of MSA patients

Source: patent US20250339405A1, “a-SYNUCLEIN AGGREGATE BINDING AGENT AND IMAGING METHOD” (National Institutes for quantum and Radiological Science …, priority 2019, published 2025)
